One block for each compound: values may come before it.
Test system: 996289-038-R-J1-PDC spheroid viability
Test: Anticancer human tumor 996289-038-R-J1-PDC patient-derived colon adenocarcinoma cell line growth inhibition [PI3K]
Details: spheroids with HUVEC and MSC; for IC50: curve of first compound; for viability, T/C: stronger effect = lower value
How it was run: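 High-throughput combination screen: PI3K inhibitors crossed with targeted small molecules on complex spheroids of tumor cells, HUVEC and MSCs at 37 degrees C, 5% CO2. Top concentration was at or near clinical Cmax (otherwise 10 microM), with half-log decrements.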

[1] = second compound 0.00316 µM, first compound 0.0316 µM
[2] = second compound 0.00316 µM, first compound 0.1 µM
[3] = second compound 0.00316 µM, first compound 0.316 µM
[4] = second compound 0.00316 µM, first compound 1 µM
[5] = second compound 0.00316 µM, first compound 3.16 µM
[6] = second compound 0.00316 µM, first compound 10 µM
[7] = second compound 0.01 µM, first compound 0.0316 µM
[8] = second compound 0.01 µM, first compound 0.1 µM
[9] = second compound 0.01 µM, first compound 0.316 µM
[10] = second compound 0.01 µM, first compound 1 µM
[11] = second compound 0.01 µM, first compound 3.16 µM
[12] = second compound 0.01 µM, first compound 10 µM
[13] = second compound 0.0316 µM, first compound 0.0316 µM
[14] = second compound 0.0316 µM, first compound 0.1 µM
[15] = second compound 0.0316 µM, first compound 0.316 µM
[16] = second compound 0.0316 µM, first compound 1 µM
[17] = second compound 0.0316 µM, first compound 3.16 µM
[18] = second compound 0.0316 µM, first compound 10 µM
[19] = second compound 0.1 µM, first compound 0.0316 µM
[20] = second compound 0.1 µM, first compound 0.1 µM
[21] = second compound 0.1 µM, first compound 0.316 µM
[22] = second compound 0.1 µM, first compound 1 µM
[23] = second compound 0.1 µM, first compound 3.16 µM
[24] = second compound 0.1 µM, first compound 10 µM
[25] = second compound 0.316 µM, first compound 0.0316 µM
[26] = second compound 0.316 µM, first compound 0.1 µM
[27] = second compound 0.316 µM, first compound 0.316 µM
[28] = second compound 0.316 µM, first compound 1 µM
[29] = second compound 0.316 µM, first compound 3.16 µM
[30] = second compound 0.316 µM, first compound 10 µM
[31] = second compound 1 µM, first compound 0.0316 µM
[32] = second compound 1 µM, first compound 0.1 µM
[33] = second compound 1 µM, first compound 0.316 µM
[34] = second compound 1 µM, first compound 1 µM
[35] = second compound 1 µM, first compound 3.16 µM
[36] = second compound 1 µM, first compound 10 µM
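Note: spheroids exposed to compounds for seven days before viability read.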
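Throughout, for viability, T/C: luminescence used as a proxy for viable cell amount; percent viability relative to DMSO vehicle control as 100%.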

IC50 (second compound 0.00316 µM): 1.45 µM | IC50 (second compound 0.01 µM): 0.859 µM | IC50 (second compound 0.0316 µM): 0.641 µM | IC50 (second compound 0.1 µM): 0.347 µM | IC50 (second compound 0.316 µM): 0.169 µM | IC50 (second compound 1 µM): 0.0772 µM
Structure (SMILES): C#Cc1c(F)ccc2cc(O)cc(-c3ncc4c(N5CC6CCC(C5)N6)nc(OCC56CCCN5CC(F)C6)nc4c3F)c12 (stereo not drawn) + CC(Nc1ccc2c(c1)OCCn1cc(N3C(=O)OCC3C(F)F)nc1-2)C(N)=O
viability, T/C [1]: 86% | viability, T/C [2]: 81.2% | viability, T/C [3]: 67.4% | viability, T/C [4]: 52% | viability, T/C [5]: 45% | viability, T/C [6]: 34.9% | viability, T/C [7]: 89% | viability, T/C [8]: 80.6% | viability, T/C [9]: 57.7% | viability, T/C [10]: 52.6% | viability, T/C [11]: 39.8% | viability, T/C [12]: 41.1% | viability, T/C [13]: 87.5% | viability, T/C [14]: 83.2% | viability, T/C [15]: 59.6% | viability, T/C [16]: 42.5% | viability, T/C [17]: 44.2% | viability, T/C [18]: 30% | viability, T/C [19]: 75% | viability, T/C [20]: 69.6% | viability, T/C [21]: 50.2% | viability, T/C [22]: 35.9% | viability, T/C [23]: 32% | viability, T/C [24]: 26.1% | viability, T/C [25]: 72.2% | viability, T/C [26]: 57.1% | viability, T/C [27]: 40.8% | viability, T/C [28]: 33.7% | viability, T/C [29]: 29.6% | viability, T/C [30]: 21.6% | viability, T/C [31]: 56.8% | viability, T/C [32]: 48.8% | viability, T/C [33]: 39% | viability, T/C [34]: 29.3% | viability, T/C [35]: 26.4% | viability, T/C [36]: 17.9%

IC50 (second compound 0.00316 µM): > 10 µM | IC50 (second compound 0.01 µM): > 10 µM | IC50 (second compound 0.0316 µM): > 10 µM | IC50 (second compound 0.1 µM): > 10 µM | IC50 (second compound 0.316 µM): > 10 µM | IC50 (second compound 1 µM): > 10 µM
Structure (SMILES): C=CC(=O)N1CCN(c2nc(=O)n(-c3c(C)ccnc3C(C)C)c3nc(-c4c(O)cccc4F)c(F)cc23)C(C)C1 (stereo not drawn) + CC(Nc1ccc2c(c1)OCCn1cc(N3C(=O)OCC3C(F)F)nc1-2)C(N)=O
viability, T/C [1]: 91.2% | viability, T/C [2]: 92.7% | viability, T/C [3]: 106% | viability, T/C [4]: 112% | viability, T/C [5]: 113% | viability, T/C [6]: 106% | viability, T/C [7]: 97.8% | viability, T/C [8]: 96.7% | viability, T/C [9]: 112% | viability, T/C [10]: 100% | viability, T/C [11]: 118% | viability, T/C [12]: 118% | viability, T/C [13]: 88.7% | viability, T/C [14]: 106% | viability, T/C [15]: 95.3% | viability, T/C [16]: 105% | viability, T/C [17]: 97.3% | viability, T/C [18]: 98.8% | viability, T/C [19]: 87.5% | viability, T/C [20]: 81.9% | viability, T/C [21]: 87.8% | viability, T/C [22]: 98.9% | viability, T/C [23]: 85.4% | viability, T/C [24]: 83% | viability, T/C [25]: 79.4% | viability, T/C [26]: 67.7% | viability, T/C [27]: 75.1% | viability, T/C [28]: 80.9% | viability, T/C [29]: 77.1% | viability, T/C [30]: 77.7% | viability, T/C [31]: 82.2% | viability, T/C [32]: 50.2% | viability, T/C [33]: 60.2% | viability, T/C [34]: 59.1% | viability, T/C [35]: 62.6% | viability, T/C [36]: 67.7%

IC50 (second compound 0.00316 µM): > 10 µM | IC50 (second compound 0.01 µM): > 10 µM | IC50 (second compound 0.0316 µM): > 10 µM | IC50 (second compound 0.1 µM): > 10 µM | IC50 (second compound 0.316 µM): > 10 µM | IC50 (second compound 1 µM): > 10 µM
Structure (SMILES): CC(Cn1ccc(-c2ccc(C#N)c(Cl)c2)n1)NC(=O)c1cc(C(C)O)[nH]n1 (stereo not drawn) + CC(Nc1ccc2c(c1)OCCn1cc(N3C(=O)OCC3C(F)F)nc1-2)C(N)=O
viability, T/C [1]: 86% | viability, T/C [2]: 108% | viability, T/C [3]: 98.5% | viability, T/C [4]: 112% | viability, T/C [5]: 96% | viability, T/C [6]: 97.4% | viability, T/C [7]: 92.6% | viability, T/C [8]: 98.4% | viability, T/C [9]: 110% | viability, T/C [10]: 100% | viability, T/C [11]: 96% | viability, T/C [12]: 87.1% | viability, T/C [13]: 96.8% | viability, T/C [14]: 101% | viability, T/C [15]: 89.7% | viability, T/C [16]: 93.7% | viability, T/C [17]: 93.8% | viability, T/C [18]: 79.2% | viability, T/C [19]: 78% | viability, T/C [20]: 79.4% | viability, T/C [21]: 89.1% | viability, T/C [22]: 82.7% | viability, T/C [23]: 97.1% | viability, T/C [24]: 76.7% | viability, T/C [25]: 70.2% | viability, T/C [26]: 73.2% | viability, T/C [27]: 66.7% | viability, T/C [28]: 73.5% | viability, T/C [29]: 66.7% | viability, T/C [30]: 72% | viability, T/C [31]: 55% | viability, T/C [32]: 55.1% | viability, T/C [33]: 68.9% | viability, T/C [34]: 63.1% | viability, T/C [35]: 58% | viability, T/C [36]: 58.6%

IC50 (second compound 0.00316 µM): 6.75 µM | IC50 (second compound 0.01 µM): 6.89 µM | IC50 (second compound 0.0316 µM): 6.69 µM | IC50 (second compound 0.1 µM): 5.85 µM | IC50 (second compound 0.316 µM): 4.91 µM | IC50 (second compound 1 µM): 4.66 µM
Structure (SMILES): CC1(C)CCC(Nc2ncc(C(F)(F)F)c(-c3c[nH]c4c(P(C)(C)=O)c(C#N)ccc34)n2)CN1 (stereo not drawn) + CC(Nc1ccc2c(c1)OCCn1cc(N3C(=O)OCC3C(F)F)nc1-2)C(N)=O
viability, T/C [1]: 111% | viability, T/C [2]: 90.6% | viability, T/C [3]: 81% | viability, T/C [4]: 87.3% | viability, T/C [5]: 97.1% | viability, T/C [6]: 27.4% | viability, T/C [7]: 110% | viability, T/C [8]: 93% | viability, T/C [9]: 81.7% | viability, T/C [10]: 94.1% | viability, T/C [11]: 89.7% | viability, T/C [12]: 31.1% | viability, T/C [13]: 99.3% | viability, T/C [14]: 83.6% | viability, T/C [15]: 85.5% | viability, T/C [16]: 81.9% | viability, T/C [17]: 88.5% | viability, T/C [18]: 29.7% | viability, T/C [19]: 89% | viability, T/C [20]: 76.3% | viability, T/C [21]: 81.2% | viability, T/C [22]: 82.2% | viability, T/C [23]: 81% | viability, T/C [24]: 22.9% | viability, T/C [25]: 73.9% | viability, T/C [26]: 72% | viability, T/C [27]: 76.6% | viability, T/C [28]: 65.8% | viability, T/C [29]: 69% | viability, T/C [30]: 19.9% | viability, T/C [31]: 58.8% | viability, T/C [32]: 73.8% | viability, T/C [33]: 63.7% | viability, T/C [34]: 63.3% | viability, T/C [35]: 66.8% | viability, T/C [36]: 19.9%

— PubChem BioAssay AID1963965 (Molecular Pharmacology Branch, DTP, NCI, 2024)
